Experimental data: patent publication US20200325127A1, “PYRIDIN-3-YL ACETIC ACID DERIVATIVES AS INHIBITORS OF HUMAN IMMUNODEFICIENCY VIRUS REPLICATION” (priority 2016, published 2020)

The molecules below were run on NL-RLuc virus (assay: Inhibition of HIV replication (NL-RLuc luciferase reporter virus in MT-2 cells)). Conditions: Human immunodeficiency virus 1, MT2, 120 h, read-out: Activity.
Assay type: cell-based
Excerpt: Inhibition of HIV replication: A recombinant NL-RLuc proviral clone was constructed in which a section of the nef gene from NL4-3 was replaced with the Renilla Luciferase gene. This virus is fully infectious and can undergo multiple cycles of replication in cell culture. In addition, the luciferous reporter provides a simple and easy method for quantitating the extent of virus growth and consequently, the antiviral activity of test compounds. The plasmid pNLRLuc contains the proviral NL-Rluc DNA cloned into pUC18 at the PvuII site. The NL-RLuc virus was prepared by transfection of 293T cells with the plasmid pNLRLuc. Transfections were performed using the LipofectAMINE PLUS kit from Invitrogen (Carlsbad, Calif.) according to the manufacturer and the virus generated was titered in MT-2 cells. For susceptibility analyses, the titrated virus was used to infect MT-2 cells in the presence of compound, and after 5 days of incubation, cells were processed and quantitated for virus growth by the amount of expressed luciferase. Assay media was RPMI 1640 supplemented with 10% heat inactivated fetal bovine serum (FBS), 100 units/ml penicillin G/100 units/ml streptomycin, 10 mM HEPES buffer pH 7.55 and 2 mM L-glutamine. The results from at least 2 experiments were used to calculate the EC50 values. Luciferase was quantitated using the Dual Luciferase kit from Promega (Madison, Wis.). Susceptibility of viruses to compounds was determined by incubation in the presence of serial dilutions of the compound. The 50% effective concentration (EC50) was calculated by using the exponential form of the median effect equation where (Fa)=1/[1+(ED50/drug conc.)^m](Johnson V A, Byington R T. Infectivity Assay. In Techniques in HIV Research. ed. Aldovini A, Walker B D. 71-76. New York: Stockton Press. 1990). Activity equal to A refers to a compound having an EC50≤100 nM, while B and C denote compounds having an EC50 between 100 nM and 1 uM (B) or >1 uM (C).

`Cc1nc(C)c([C@H](OC(C)(C)C)C(=O)O)c(N2CCC(C)(C)CC2)c1-c1ccc2c(c1)CCN(c1cc(Nc3ccccc3)ncn1)C2` [Compound 53] and `Cc1nc(C)c([C@H](OC(C)(C)C)C(=O)O)c(N2CCC(C)(C)CC2)c1-c1ccc2c(c1)CCN(c1nccc(-c3ccccc3)n1)C2` [Compound 8] cannot be ordered by EC50: less than 0.1 µM for the first, less than 0.1 µM for the second.

`Cc1nc(C)c([C@H](OC(C)(C)C)C(=O)O)c(N2CCC(C)(C)CC2)c1-c1ccc2c(c1)CCN(c1nccs1)C2` [Compound 6] and `Cc1nc(C)c([C@H](OC(C)(C)C)C(=O)O)c(N2CCC(C)(C)CC2)c1-c1ccc2c(c1)CCN(c1ccccn1)C2` [Compound 46] cannot be ordered by EC50: less than 0.1 µM for the first, less than 0.1 µM for the second.

`COc1ncnc(N2CCc3cc(-c4c(C)nc(C)c([C@H](OC(C)(C)C)C(=O)O)c4N4CCC(C)(C)CC4)ccc3C2)c1C` [Compound 50] and `Cc1nc(C)c([C@H](OC(C)(C)C)C(=O)O)c(N2CCC(C)(C)CC2)c1-c1ccc2c(c1)CCN(c1ncnc(Cl)c1N)C2` [Compound 54] cannot be ordered by EC50: less than 0.1 µM for the first, less than 0.1 µM for the second.

Compared with `Cc1nc(C)c([C@H](OC(C)(C)C)C(=O)O)c(N2CCC(C)(C)CC2)c1-c1ccc2c(c1)CCN(c1nc(N3CCOCC3)nc(N3CCOCC3)n1)C2` [Compound 37], `COc1nc(O)nc(N2CCc3cc(-c4c(C)nc(C)c([C@H](OC(C)(C)C)C(=O)O)c4N4CCC(C)(C)CC4)ccc3C2)n1` [Compound 13] is higher in EC50: less than 0.1 µM for the first, 0.1 to 1 µM for the second.

`Cc1nc(C)c([C@H](OC(C)(C)C)C(=O)O)c(N2CCC(C)(C)CC2)c1-c1ccc2c(c1)CCN(c1nc3c(s1)C(=O)NCC3)C2` [Compound 4] and `Cc1cc(N2CCc3cc(-c4c(C)nc(C)c([C@H](OC(C)(C)C)C(=O)O)c4N4CCC(C)(C)CC4)ccc3C2)nc(C)n1` [Compound 29] cannot be ordered by EC50: less than 0.1 µM for the first, less than 0.1 µM for the second.

`Cc1nc(C)c([C@H](OC(C)(C)C)C(=O)O)c(N2CCC(C)(C)CC2)c1-c1ccc2c(c1)CCN(c1nnnn1-c1ccccc1)C2` [Compound 1] and `CNc1nccc(N2CCc3cc(-c4c(C)nc(C)c([C@H](OC(C)(C)C)C(=O)O)c4N4CCC(C)(C)CC4)ccc3C2)n1` [Compound 36] cannot be ordered by EC50: less than 0.1 µM for the first, less than 0.1 µM for the second.

`Cc1nc(C)c([C@H](OC(C)(C)C)C(=O)O)c(N2CCC(C)(C)CC2)c1-c1ccc2c(c1)CCN(c1ncncc1F)C2` [Compound 25] and `Cc1nc(C)c([C@H](OC(C)(C)C)C(=O)O)c(N2CCC(C)(C)CC2)c1-c1ccc2c(c1)CCN(c1ncc(F)cn1)C2` [Compound 21] cannot be ordered by EC50: less than 0.1 µM for the first, less than 0.1 µM for the second.

`COCc1cc(N2CCc3cc(-c4c(C)nc(C)c([C@H](OC(C)(C)C)C(=O)O)c4N4CCC(C)(C)CC4)ccc3C2)ncn1` [Compound 51] and `Cc1nc(C)c([C@H](OC(C)(C)C)C(=O)O)c(N2CCC(C)(C)CC2)c1-c1ccc2c(c1)CCN(c1cc(C3CC3)ncn1)C2` [Compound 43] cannot be ordered by EC50: less than 0.1 µM for the first, less than 0.1 µM for the second.

`COc1cc(N2CCc3cc(-c4c(C)nc(C)c([C@H](OC(C)(C)C)C(=O)O)c4N4CCC(C)(C)CC4)ccc3C2)nc(OC)n1` [Compound 14] and `COc1nccc(N2CCc3cc(-c4c(C)nc(C)c([C@H](OC(C)(C)C)C(=O)O)c4N4CCC(C)(C)CC4)ccc3C2)n1` [Compound 40] cannot be ordered by EC50: less than 0.1 µM for the first, less than 0.1 µM for the second.

`COc1cnc(SC)nc1N1CCc2cc(-c3c(C)nc(C)c([C@H](OC(C)(C)C)C(=O)O)c3N3CCC(C)(C)CC3)ccc2C1` [Compound 57] and `Cc1cnc(N2CCc3cc(-c4c(C)nc(C)c([C@H](OC(C)(C)C)C(=O)O)c4N4CCC(C)(C)CC4)ccc3C2)nc1` [Compound 17] cannot be ordered by EC50: less than 0.1 µM for the first, less than 0.1 µM for the second.

`Cc1nc(C)c([C@H](OC(C)(C)C)C(=O)O)c(N2CCC(C)(C)CC2)c1-c1ccc2c(c1)CCN(c1ncnc3c1CCCC3)C2` [Compound 15] and `Cc1nc(C)c([C@H](OC(C)(C)C)C(=O)O)c(N2CCC(C)(C)CC2)c1-c1ccc2c(c1)CCN(c1ncccn1)C2` [Compound 18] cannot be ordered by EC50: less than 0.1 µM for the first, less than 0.1 µM for the second.

Compared with `Cc1cn(-c2ccc(N3CCc4cc(-c5c(C)nc(C)c([C@H](OC(C)(C)C)C(=O)O)c5N5CCC(C)(C)CC5)ccc4C3)nn2)cn1` [Compound 69], `Cc1nc(C)c([C@H](OC(C)(C)C)C(=O)O)c(N2CCC(C)(C)CC2)c1-c1ccc2c(c1)CCN(c1ncc(C#N)cn1)C2` [Compound 22] is higher in EC50: less than 0.1 µM for the first, 0.1 to 1 µM for the second. The first is the more potent here.

Same assay, conditions: Human immunodeficiency virus 1, MT2, 120 h, read-out: EC50 μM

First: Cc1nc(C)c([C@H](OC(C)(C)C)C(=O)O)c(N2CCC(C)(C)CC2)c1-c1ccc2c(c1)CCN(c1nccs1)C2 [Compound 6]
Second: COc1nccc(N2CCc3cc(-c4c(C)nc(C)c([C@H](OC(C)(C)C)C(=O)O)c4N4CCC(C)(C)CC4)ccc3C2)n1 [Compound 40]
The EC50 of the first is 3.5-fold higher: 0.007 µM for the first, 0.002 µM for the second. The second is the more potent here.

`Cc1nc(C)c([C@H](OC(C)(C)C)C(=O)O)c(N2CCC(C)(C)CC2)c1-c1ccc2c(c1)CCN(c1ncnc3ccccc13)C2` [Compound 76] and `Cc1nc(C)c([C@H](OC(C)(C)C)C(=O)O)c(N2CCC(C)(C)CC2)c1-c1ccc2c(c1)CCN(c1ncnc3ccc(F)cc13)C2` [Compound 85] are the same in EC50: 0.002 µM for the first, 0.002 µM for the second.

Going from `Cc1nc(C)c([C@H](OC(C)(C)C)C(=O)O)c(N2CCC(C)(C)CC2)c1-c1ccc2c(c1)CCN(c1nnnn1-c1ccccc1)C2` [Compound 1] to `Cc1nc(C)c([C@H](OC(C)(C)C)C(=O)O)c(N2CCC(C)(C)CC2)c1-c1ccc2c(c1)CCN(c1cnc3ccccc3n1)C2` [Compound 71], the EC50 rises from 0.006 µM to 0.01 µM (1.7-fold). The first is the more potent here.

`Cc1nc(C)c([C@H](OC(C)(C)C)C(=O)O)c(N2CCC(C)(C)CC2)c1-c1ccc2c(c1)CCN(c1ncc3cc(Br)ccc3n1)C2` [Compound 72] and `Cc1nc(C)c([C@H](OC(C)(C)C)C(=O)O)c(N2CCC(C)(C)CC2)c1-c1ccc2c(c1)CCN(c1ncc3cc(F)ccc3n1)C2` [Compound 75] are within 1.5-fold of each other in EC50: 0.004 µM for the first, 0.003 µM for the second.

First: COc1nc(O)nc(N2CCc3cc(-c4c(C)nc(C)c([C@H](OC(C)(C)C)C(=O)O)c4N4CCC(C)(C)CC4)ccc3C2)n1 [Compound 13]
Second: Cc1cc(N2CCc3cc(-c4c(C)nc(C)c([C@H](OC(C)(C)C)C(=O)O)c4N4CCC(C)(C)CC4)ccc3C2)nc(C)n1 [Compound 29]
The EC50 of the first is 70-fold higher: 0.278 µM for the first, 0.004 µM for the second.

Going from `Cc1nc(C)c([C@H](OC(C)(C)C)C(=O)O)c(N2CCC(C)(C)CC2)c1-c1ccc2c(c1)CCN(c1nccc3cccnc13)C2` [Compound 77] to `Cc1nc(C)c([C@H](OC(C)(C)C)C(=O)O)c(N2CCC(C)(C)CC2)c1-c1ccc2c(c1)CCN(c1ccnc3cccnc13)C2` [Compound 88], the EC50 falls from 0.002 µM to 0.001 µM (2-fold). The second is the more potent here.

First: COc1ccc2c(N3CCc4cc(-c5c(C)nc(C)c([C@H](OC(C)(C)C)C(=O)O)c5N5CCC(C)(C)CC5)ccc4C3)ncnc2c1 [Compound 80]
Second: Cc1nc(C)c([C@H](OC(C)(C)C)C(=O)O)c(N2CCC(C)(C)CC2)c1-c1ccc2c(c1)CCN(c1ncnc3cc(Cl)ccc13)C2 [Compound 89]
The EC50 of the first is 4-fold lower: 0.001 µM for the first, 0.004 µM for the second.

Molecule `COc1cc2ncnc(N3CCc4cc(-c5c(C)nc(C)c([C@H](OC(C)(C)C)C(=O)O)c5N5CCC(C)(C)CC5)ccc4C3)c2cc1OC` [Compound 84] has an EC50 of 0.002 µM.
